Test results published in ChEMBL document CHEMBL1151010, “A case study of combinatorial libraries: Endothelin receptor antagonist hexapeptides” (Bioorg Med Chem Lett, 1995).
Square brackets hold non-standard residues; d marks the D form. Peptide text beside a SMILES is read from it. dGly(5-dibenzosuberyl) = N[C@@H](C(=O)O)C1c2ccccc2CCc2ccccc21

Tests used:
Endothelin-1 receptor = target: T1, Endothelin-1 receptor (Sus scrofa, UniProt Q29010); assay: (§1) Inhibition of endothelin (ET-A) binding to porcine heart membranes; set-up: species or system Membrane
T1 sequence (Q29010 whole entry): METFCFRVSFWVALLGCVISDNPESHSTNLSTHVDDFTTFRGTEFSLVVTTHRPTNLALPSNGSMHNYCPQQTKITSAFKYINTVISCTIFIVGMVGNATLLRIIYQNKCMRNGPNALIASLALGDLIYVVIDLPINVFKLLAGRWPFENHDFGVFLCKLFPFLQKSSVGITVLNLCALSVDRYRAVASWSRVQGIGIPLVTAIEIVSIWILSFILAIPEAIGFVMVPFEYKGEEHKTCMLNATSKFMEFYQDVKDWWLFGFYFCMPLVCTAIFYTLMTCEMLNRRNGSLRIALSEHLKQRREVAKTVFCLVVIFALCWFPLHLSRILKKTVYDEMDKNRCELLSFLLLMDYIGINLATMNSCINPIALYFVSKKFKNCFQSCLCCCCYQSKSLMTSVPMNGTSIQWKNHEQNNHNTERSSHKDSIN

[1] = target: T2, Endothelin-1 receptor (Sus scrofa) (UniProt Q29010); assay: as §1; set-up: concentration or dose not given beside the values; conditions: Membrane, concentration not given here
T2 sequence (whole entry): T1 sequence (Q29010 whole entry)

[2] = target: T2, Endothelin-1 receptor (Sus scrofa); assay: Antagonist activity against ET-A from porcine heart membranes; assay type: functional, tissue-based; conditions: concentration not given here
[3] = target: T2, Endothelin-1 receptor (Sus scrofa); assay: as §1; set-up: concentration or dose not given beside the values; conditions: Membrane, concentration not given here; remark: listed apart in the source

| Compound | IC50 (Endothelin-1 receptor) [nM] | inhibition [1] [%] | inhibition [2] [%] | inhibition [3] [%] |
| --- | --- | --- | --- | --- |
| CC[C@H](C)[C@H](NC(=O)CNC(=O)CNC(=O)[C@H](CC(C)C)NC(=O)[C@H](NC(C)=O)C1c2ccccc2CCc2ccccc21)C(=O)N[C@@H](Cc1c[nH]c2ccccc12)C(=O)O | 150 | 41 |  |  |
| CC[C@H](C)[C@H](NC(=O)CNC(=O)[C@H](C)NC(=O)[C@H](CC(C)C)NC(=O)[C@H](NC(C)=O)C1c2ccccc2CCc2ccccc21)C(=O)N[C@@H](Cc1c[nH]c2ccccc12)C(=O)O |  | 62 |  |  |
| CC[C@H](C)[C@H](NC(=O)[C@@H](NC(=O)[C@H](CC(=O)O)NC(=O)[C@H](CCC(N)=O)NC(=O)[C@H](NC(C)=O)C1c2ccccc2CCc2ccccc21)C1CCCCC1)C(=O)N[C@@H](Cc1c[nH]c2ccccc12)C(=O)O |  |  | 49 |  |
| CC[C@H](C)[C@H](NC(=O)[C@H](CC(N)=O)NC(=O)[C@H](CC(=O)O)NC(=O)[C@H](CC(C)C)NC(=O)[C@H](NC(C)=O)C1c2ccccc2CCc2ccccc21)C(=O)N[C@@H](Cc1c[nH]c2ccccc12)C(=O)O | 40 |  |  | 41 |
| CC[C@H](C)[C@H](NC(=O)[C@H](CCSC)NC(=O)[C@H](CC(=O)O)NC(=O)[C@H](CC(C)C)NC(=O)[C@H](NC(C)=O)C1c2ccccc2CCc2ccccc21)C(=O)N[C@@H](Cc1c[nH]c2ccccc12)C(=O)O | 40 |  |  | 26 |
| CC[C@H](C)[C@H](NC(=O)CNC(=O)[C@@H]1CCCN1C(=O)[C@H](CC(C)C)NC(=O)[C@H](NC(C)=O)C1c2ccccc2CCc2ccccc21)C(=O)N[C@@H](Cc1c[nH]c2ccccc12)C(=O)O |  | 7 |  |  |
| CC(=O)N[C@@H](C(=O)N[C@@H](CC(C)C)C(=O)N[C@@H](CO)C(=O)NCC(=O)N[C@H](C(=O)N[C@@H](Cc1c[nH]c2ccccc12)C(=O)O)C(C)C)C1c2ccccc2CCc2ccccc21 |  | 65 |  |  |
| CC[C@H](C)[C@H](NC(=O)CNC(=O)[C@H](Cc1c[nH]cn1)NC(=O)[C@H](CC(C)C)NC(=O)[C@H](NC(C)=O)C1c2ccccc2CCc2ccccc21)C(=O)N[C@@H](Cc1c[nH]c2ccccc12)C(=O)O |  | 56 |  |  |
| CC[C@H](C)[C@H](NC(=O)CNC(=O)[C@H](CCC(N)=O)NC(=O)[C@H](CC(C)C)NC(=O)[C@H](NC(C)=O)C1c2ccccc2CCc2ccccc21)C(=O)N[C@@H](Cc1c[nH]c2ccccc12)C(=O)O | 180 | 66 |  |  |
| CC[C@H](C)[C@H](NC(=O)CNC(=O)[C@H](CC(C)C)NC(=O)[C@H](CC(C)C)NC(=O)[C@H](NC(C)=O)C1c2ccccc2CCc2ccccc21)C(=O)N[C@@H](Cc1c[nH]c2ccccc12)C(=O)O |  | 34 |  |  |
| CC[C@H](C)[C@H](NC(=O)CNC(=O)[C@H](CCCCN)NC(=O)[C@H](CC(C)C)NC(=O)[C@H](NC(C)=O)C1c2ccccc2CCc2ccccc21)C(=O)N[C@@H](Cc1c[nH]c2ccccc12)C(=O)O |  | 16 |  |  |
| CC[C@@H](C)[C@H](NC(=O)[C@H](CC(C)C)NC(=O)[C@H](NC(C)=O)C1c2ccccc2CCc2ccccc21)C(=O)NCC(=O)N[C@H](C(=O)N[C@@H](Cc1c[nH]c2ccccc12)C(=O)O)[C@@H](C)CC |  | 22 |  |  |
| CC[C@H](C)[C@H](NC(=O)[C@@H](NC(=O)[C@H](CC(=O)O)NC(=O)[C@H](CC(C)C)NC(=O)[C@H](NC(C)=O)C1c2ccccc2CCc2ccccc21)C(C)C)C(=O)N[C@@H](Cc1c[nH]c2ccccc12)C(=O)O | 5 |  |  | 70 |
| CC[C@H](C)[C@H](NC(=O)CNC(=O)[C@@H](NC(=O)[C@H](CC(C)C)NC(=O)[C@H](NC(C)=O)C1c2ccccc2CCc2ccccc21)[C@@H](C)O)C(=O)N[C@@H](Cc1c[nH]c2ccccc12)C(=O)O | 350 |  |  |  |
| CC[C@H](C)[C@H](NC(=O)[C@@H](NC(=O)[C@H](CC(=O)O)NC(=O)[C@H](CC(C)C)NC(=O)[C@H](NC(C)=O)C1c2ccccc2CCc2ccccc21)C1CCCCC1)C(=O)N[C@@H](Cc1c[nH]c2ccccc12)C(=O)O |  |  | 47 |  |
| CC[C@H](C)[C@H](NC(=O)CNC(=O)[C@H](CC(=O)O)NC(=O)[C@H](CC(C)C)NC(=O)[C@H](NC(C)=O)C1c2ccccc2CCc2ccccc21)C(=O)N[C@@H](Cc1c[nH]c2ccccc12)C(=O)O | 18 | 93 |  | 41 |
| CC[C@H](C)[C@H](NC(=O)[C@H](C)NC(=O)[C@H](CC(=O)O)NC(=O)[C@H](CC(C)C)NC(=O)[C@H](NC(C)=O)C1c2ccccc2CCc2ccccc21)C(=O)N[C@@H](Cc1c[nH]c2ccccc12)C(=O)O | 30 |  |  | 47 |
| CC[C@H](C)[C@H](NC(=O)CNC(=O)[C@H](CC(N)=O)NC(=O)[C@H](CC(C)C)NC(=O)[C@H](NC(C)=O)C1c2ccccc2CCc2ccccc21)C(=O)N[C@@H](Cc1c[nH]c2ccccc12)C(=O)O | 120 | 74 |  |  |
| CC[C@H](C)[C@H](NC(=O)CNC(=O)[C@H](CCSC)NC(=O)[C@H](CC(C)C)NC(=O)[C@H](NC(C)=O)C1c2ccccc2CCc2ccccc21)C(=O)N[C@@H](Cc1c[nH]c2ccccc12)C(=O)O |  | 61 |  |  |
| CC[C@H](C)[C@H](NC(=O)CNC(=O)[C@H](Cc1ccccc1)NC(=O)[C@H](CC(C)C)NC(=O)[C@H](NC(C)=O)C1c2ccccc2CCc2ccccc21)C(=O)N[C@@H](Cc1c[nH]c2ccccc12)C(=O)O |  | 42 |  |  |
| CC[C@H](C)[C@H](NC(=O)CNC(=O)[C@H](CO)NC(=O)[C@H](CC(C)C)NC(=O)[C@H](NC(C)=O)C1c2ccccc2CCc2ccccc21)C(=O)N[C@@H](Cc1c[nH]c2ccccc12)C(=O)O | 380 |  |  |  |
| CC[C@H](C)[C@H](NC(=O)CNC(=O)[C@H](CCCN=C(N)N)NC(=O)[C@H](CC(C)C)NC(=O)[C@H](NC(C)=O)C1c2ccccc2CCc2ccccc21)C(=O)N[C@@H](Cc1c[nH]c2ccccc12)C(=O)O |  | 27 |  |  |
| CC[C@H](C)[C@H](NC(=O)[C@H](Cc1ccccc1)NC(=O)[C@H](CC(=O)O)NC(=O)[C@H](CC(C)C)NC(=O)[C@H](NC(C)=O)C1c2ccccc2CCc2ccccc21)C(=O)N[C@@H](Cc1c[nH]c2ccccc12)C(=O)O (Ac-[dGly(5-dibenzosuberyl)]LDFIW-OH) |  |  |  | 12 |
| CC[C@H](C)[C@H](NC(=O)CNC(=O)[C@H](CCC(=O)O)NC(=O)[C@H](CC(C)C)NC(=O)[C@H](NC(C)=O)C1c2ccccc2CCc2ccccc21)C(=O)N[C@@H](Cc1c[nH]c2ccccc12)C(=O)O | 48 | 88 |  |  |
